# Test results as given in patent US20240034785A1, “RXR-ALPHA BINDERS AND RXR-ALPHA/PLK1 MODULATORS” (NUCMITO PHARMACEUTICALS CO. LTD., priority 2020, published 2024).
# What was measured:
# RXRα shift = assay: Western blot of RXRα mobility shift (phosphorylation) in mitotic HeLa cells treated with inhibitors; type: cell-based, human; conditions: for RXRα shift (mobility shift on SDS-PAGE, WB): mitotic HeLa cells released from TT block, inhibitors for 15 min (FIG. 16)
# Protocol: (§1) Cells were synchronized at GUS boundary by a double thymidine block. Briefly, cells cultured in a medium containing 2 mM thymidine for 16 hr were released into a normal medium for 8 hr, subjected to a second thymidine block for 16 hr, and then released into a fresh medium again. Alternatively, cells were synchronized at prometaphase by a thymidine-nocodazole arrest (an 18-hr thymidine arrest and a 5-hr release, followed by a 5-hr 100 ng/mL nocodazole arrest).
# cancer cells = assay: Mitotic progression of cancer cells (FACS analysis); type: cell-based
# Protocol: Cells were harvested by trypsin digestion, washed with PBS, and fixed with ice-cold 70% ethanol overnight at 4° C. The fixed cells were then washed twice in PBS and treated for 10 min at room temperature with 0.5 μg/mL 4-6-diamidino-2-phenylindole (DAPI) in PBS and analyzed on a FACSCAN™ flow cytometer. Flow cytometry data were analyzed using CYTEXPERT.
# QSG-7701 cells = assay: Western blot analysis of QSG-7701 normal liver cells; type: cell-based, human; conditions: 12 hr (FIG. 61)
# PLK1 phosphorylation = assay: Western blot of PLK1 activation/phosphorylation in mitotic cells; type: cell-based, human
# Protocol: as §1
# [1] = biological target: T1, p-RXRα and PLK1 at the centrosome (Homo sapiens, UniProt P19793); assay: In situ proximity ligation assay (PLA) in HepG2 cells; type: cell-based; conditions: RO-3306 10 μM for 30 min or compound A1 10 μM for 2 hr (FIG. 56)
# T1 construct: endogenous in cells; host or cells: HepG2
# T1 sequence (P19793 1-462): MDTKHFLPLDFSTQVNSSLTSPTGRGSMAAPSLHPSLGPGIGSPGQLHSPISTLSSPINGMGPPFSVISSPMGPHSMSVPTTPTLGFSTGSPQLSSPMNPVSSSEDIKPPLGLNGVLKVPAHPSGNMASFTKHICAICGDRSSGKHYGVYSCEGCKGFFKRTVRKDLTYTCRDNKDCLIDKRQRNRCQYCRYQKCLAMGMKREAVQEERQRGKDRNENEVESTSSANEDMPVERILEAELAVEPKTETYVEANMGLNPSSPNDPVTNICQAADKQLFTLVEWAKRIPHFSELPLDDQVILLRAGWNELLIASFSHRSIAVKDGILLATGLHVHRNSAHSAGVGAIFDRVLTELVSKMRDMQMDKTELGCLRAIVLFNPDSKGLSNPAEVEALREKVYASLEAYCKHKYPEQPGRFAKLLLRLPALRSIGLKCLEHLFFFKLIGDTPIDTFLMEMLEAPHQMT
# Protocol: An in situ proximity ligation assay (PLA) was performed in HeLa cells and HepG2 by using a DOULINK™ assay kit. Briefly, cells mounted on glass slides were fixed with methanol at −20° C. for 5 min, then permeabilized with 0.05% Triton X-100 in a PBS buffer for 8 min at 4° C., and blocked with a blocking solution for 60 min at 37° C., followed by incubation with primary antibodies for 60 min at 37° C. The slides were then washed three times with wash buffer A, and PLA labeled secondary antibodies (anti-mouse, minus; anti-rabbit, plus) were added and incubated for 60 min at 37° C. The slides were washed two times with wash buffer A and a ligation solution including a ligase was added for 30 min at 37° C. After ligation, the slides were washed two times with wash buffer A and followed by incubation with an amplification buffer including a polymerase for 100 min at 37° C. After amplification, the slides were washed two times with 1×wash buffer B and one time in 0.01×wash buffer B. Finally, the slides were mounted using a minimal volume of a mounting medium with DAPI and analyzed in a confocal microscope after 15 min.
# [2] = test system: centrosomal localization of pS56-RXRα or RXRα; assay: Immunostaining of centrosomal localization of pS56-RXRα or RXRα in metaphase HeLa cells; type: cell-based, human; conditions: metaphase HeLa cells (FIG. 33)
# Protocol: Cells mounted on glass slides were fixed with methanol at −20° C. for 10 min, then permeabilized with 0.05% Triton X-100 in a PBS buffer for 8 min at 4° C., and blocked with 1% bovine serum in PBS for 30 min at room temperature, followed by incubation with primary antibodies at room temperature for 3 hr and detected by FITC-labeled anti-IgG (1:200), anti-goat IgG conjugated with Cy3 (1:200) at room temperature for 1 hr. The cells were costained with 40,6-diamidino-2-phenylindole (DAPI) (1:10,000 dilution) to visualize nuclei. The images were taken under a LEICA TCS SP8 confocal laser scanning microscope system or an LSM-510 confocal laser scanning microscope system.
# [3] = biological target: T2, regular 55 kDa RXRα (unmodified form) (human, UniProt P19793 1-462); assay: co-immunoprecipitation from HeLa cells (IP: FLAG, WB: Myc)
# T2 construct: Non-shifted band of RXRα; Endogenous and tagged (Myc, FLAG, GST) forms are merged; also called regular RXRα; GST-RXRα (not phosphorylated)
# T2 sequence: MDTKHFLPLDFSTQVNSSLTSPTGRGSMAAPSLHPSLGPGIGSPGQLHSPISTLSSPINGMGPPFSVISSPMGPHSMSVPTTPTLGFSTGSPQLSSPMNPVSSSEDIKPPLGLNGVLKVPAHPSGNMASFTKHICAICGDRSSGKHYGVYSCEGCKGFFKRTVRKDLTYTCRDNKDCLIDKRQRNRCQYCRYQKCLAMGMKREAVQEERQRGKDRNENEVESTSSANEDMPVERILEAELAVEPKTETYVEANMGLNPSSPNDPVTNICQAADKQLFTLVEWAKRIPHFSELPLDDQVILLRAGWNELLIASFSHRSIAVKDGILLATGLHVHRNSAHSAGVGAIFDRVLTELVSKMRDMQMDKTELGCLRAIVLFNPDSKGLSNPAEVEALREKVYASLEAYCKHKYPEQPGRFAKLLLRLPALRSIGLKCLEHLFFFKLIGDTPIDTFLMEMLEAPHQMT
# [4] = biological target: T3, modified (phosphorylated) RXRα, mobility-shifted form (human, UniProt P19793 1-462, phosphoserine at 56 (as in SEQ ID NO: 1) and phosphoserine at 70 (MS/MS)); assay: CoIP of PLK1-KD or PLK1-PBD with RXRα in HeLa cells (FIG. 6)
# T3 construct: Cdk1-phosphorylated form with reduced mobility on SDS-PAGE; Endogenous and Myc-, FLAG-, GST-tagged forms are merged; also called m-RXRα; p-RXRα
# T3 sequence: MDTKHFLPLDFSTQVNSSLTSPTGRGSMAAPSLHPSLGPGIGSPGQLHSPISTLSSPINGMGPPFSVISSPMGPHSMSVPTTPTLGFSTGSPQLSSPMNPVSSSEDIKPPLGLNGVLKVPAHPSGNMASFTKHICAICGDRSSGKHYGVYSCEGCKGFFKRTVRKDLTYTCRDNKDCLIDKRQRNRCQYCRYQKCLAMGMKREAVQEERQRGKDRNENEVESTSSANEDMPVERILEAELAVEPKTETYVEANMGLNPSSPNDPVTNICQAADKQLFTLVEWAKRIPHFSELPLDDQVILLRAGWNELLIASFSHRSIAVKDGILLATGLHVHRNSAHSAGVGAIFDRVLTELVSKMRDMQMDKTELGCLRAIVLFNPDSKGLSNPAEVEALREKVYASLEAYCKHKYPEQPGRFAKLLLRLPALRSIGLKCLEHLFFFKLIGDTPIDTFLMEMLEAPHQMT
# [5] = biological target: T4, retinoic acid receptor-γ (RARγ) (UniProt P13631 1-454, limits assumed); assay: co-immunoprecipitation from HeLa cells (IP: FLAG, WB: Myc)
# T4 construct: also called FLAG-RARγ
# T4 sequence (looked up): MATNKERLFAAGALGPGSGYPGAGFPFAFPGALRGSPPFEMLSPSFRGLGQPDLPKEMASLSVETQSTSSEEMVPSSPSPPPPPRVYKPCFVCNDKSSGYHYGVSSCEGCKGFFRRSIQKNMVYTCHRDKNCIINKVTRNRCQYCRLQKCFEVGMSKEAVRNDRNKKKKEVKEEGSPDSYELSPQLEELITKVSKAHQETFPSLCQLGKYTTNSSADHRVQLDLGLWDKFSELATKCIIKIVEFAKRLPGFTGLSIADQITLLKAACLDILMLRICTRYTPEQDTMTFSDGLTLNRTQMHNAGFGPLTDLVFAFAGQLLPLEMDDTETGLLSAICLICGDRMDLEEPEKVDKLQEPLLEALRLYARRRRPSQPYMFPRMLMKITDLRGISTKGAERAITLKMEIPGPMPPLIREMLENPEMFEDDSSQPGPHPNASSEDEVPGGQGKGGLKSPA
# [6] = biological target: T5, polo-like kinase 1 (PLK1), full-length (human, UniProt P53350 1-603); assay: CoIP in HeLa cells (FIG. 3)
# T5 construct: Endogenous, FLAG-tagged and His-tagged forms are merged here; also called FLAG-PLK1; Flag-PLK1
# [7] = biological target: T4, retinoic acid receptor-γ (RARγ); assay: CoIP in HeLa cells (FIG. 3)
# [8] = biological target: T5, polo-like kinase 1 (PLK1), full-length; assay: CoIP in HeLa cells (FIG. 4)
# [9] = biological target: T5, polo-like kinase 1 (PLK1), full-length; assay: CoIP in HeLa cells (FIG. 5)
molecule,measurement,setting,value
CC[C@@H]1C(=O)N(C)c2cnc(Nc3ccc(C(=O)NC4CCN(C)CC4)cc3OC)nc2N1C1CCCC1 [BI2536],"RXRα shift (mobility shift on SDS-PAGE, WB)",RXRα shift,did not inhibit
same,inducing mitosis arrest,cancer cells,inducing mitosis arrest
same,mitotic progression of cancer cells,cancer cells,inhibited mitotic progression of cancer cells
same,effect in p-RXRα-negative noncancerous QSG-7701 cells,QSG-7701 cells,active even in QSG-7701 cells
O=C1NC(=NCc2cccs2)S/C1=C\c1ccc2ncccc2c1 [RO-3306],PLK1 activation / PLK1 phosphorylation,PLK1 phosphorylation,reduced PLK1 phosphorylation in a dose dependent manner
same,level of p-RXRα detected by the anti-pS56-RXRα antibody,RXRα shift; mitotic HeLa cells,reduced
same,"RXRα shift (mobility shift on SDS-PAGE, WB)",RXRα shift,strongly inhibited RXRα shift in a dose dependent manner
same,in situ interaction between p-RXRα and PLK1 at the centrosome (PLA),[1],inhibited the in situ interaction
same,centrosomal RXRα staining by the regular anti-RXRα antibody,[2],inhibited centrosomal RXRα staining
same,centrosomal staining by the anti-pS56-RXRα antibody,[2],eliminated centrosomal staining by the antibody
Oc1c2ccccc2c2c3c(cccc13)N=N2 [SP600125],"RXRα shift (mobility shift on SDS-PAGE, WB)",RXRα shift,no effect
Cc1cc(Nc2cc(N3CCN(C)CC3)nc(Sc3ccc(NC(=O)C4CC4)cc3)n2)n[nH]1 [VX680],PLK1 activation / PLK1 phosphorylation,PLK1 phosphorylation,attenuated
CN1CC[C@H](c2c(O)cc(O)c3c(=O)cc(-c4ccccc4Cl)oc23)[C@H](O)C1 [flavopiridol],"RXRα shift (mobility shift on SDS-PAGE, WB)",RXRα shift,strongly inhibited RXRα shift in a dose dependent manner
CC(=O)c1c(C)c2cnc(Nc3ccc(N4CCNCC4)cn3)nc2n(C2CCCC2)c1=O [palbociclib],"RXRα shift (mobility shift on SDS-PAGE, WB)",RXRα shift,no effect
CC1=CC(=O)C(C(C)C)=C/C1=N/OC(=O)c1ccccc1C [poloxin],mitotic progression of cancer cells,cancer cells,inhibited mitotic progression of cancer cells
"PLK1-KD (N-terminal kinase domain of PLK1) (enzyme, UniProt P53350 1-326, looked up, domain: kinase domain (KD)) MSAAVTAGKLARAPADPGKAGVPGVAAPGAPAAAPPAKEIPEVLVDPRSRRRYVRGRFLGKGGFAKCFEISDADTKEVFAGKIVPKSLLLKPHQREKMSMEISIHRSLAHQHVVGFHGFFEDNDFVFVVLELCRRRSLLELHKRRKALTEPEARYYLRQIVLGCQYLHRNRVIHRDLKLGNLFLNEDLEVKIGDFGLATKVEYDGERKKTLCGTPNYIAPEVLSKKGHSFEVDVWSIGCIMYTLLVGKPPFETSCLKETYLRIKKNEYSIPKHINPVAASLIQKMLQTDPTARPTINELLNDEFFTSGYIPARLPITCLTIPPRFS",binding result,[3],no binding
same,binding result,[4],no binding
"RXRα-1-235, regular form (receptor) MDTKHFLPLDFSTQVNSSLTSPTGRGSMAAPSLHPSLGPGIGSPGQLHSPISTLSSPINGMGPPFSVISSPMGPHSMSVPTTPTLGFSTGSPQLSSPMNPVSSSEDIKPPLGLNGVLKVPAHPSGNMASFTKHICAICGDRSSGKHYGVYSCEGCKGFFKRTVRKDLTYTCRDNKDCLIDKRQRNRCQYCRYQKCLAMGMKREAVQEERQRGKDRNENEVESTSSANEDMPVERI",binding result,[5],no binding
"RXRα-1-235, modified form with mobility shift (receptor, phosphorylated (mobility-shifted); sites not stated for this construct, A/B domain plus DBD) MDTKHFLPLDFSTQVNSSLTSPTGRGSMAAPSLHPSLGPGIGSPGQLHSPISTLSSPINGMGPPFSVISSPMGPHSMSVPTTPTLGFSTGSPQLSSPMNPVSSSEDIKPPLGLNGVLKVPAHPSGNMASFTKHICAICGDRSSGKHYGVYSCEGCKGFFKRTVRKDLTYTCRDNKDCLIDKRQRNRCQYCRYQKCLAMGMKREAVQEERQRGKDRNENEVESTSSANEDMPVERI",binding result,[6],binds
same,binding result,[7],no binding
"RXRα-LBD (ligand-binding domain of RXRα) (receptor, also called LBD of RXRα) TSSANEDMPVERILEAELAVEPKTETYVEANMGLNPSSPNDPVTNICQAADKQLFTLVEWAKRIPHFSELPLDDQVILLRAGWNELLIASFSHRSIAVKDGILLATGLHVHRNSAHSAGVGAIFDRVLTELVSKMRDMQMDKTELGCLRAIVLFNPDSKGLSNPAEVEALREKVYASLEAYCKHKYPEQPGRFAKLLLRLPALRSIGLKCLEHLFFFKLIGDTPIDTFLMEMLEAPHQMT",binding result,[8],no binding
"RXRα mutant lacking the N-terminal A/B domain (receptor, also called RXRα-AA/B (so in the source)) CAICGDRSSGKHYGVYSCEGCKGFFKRTVRKDLTYTCRDNKDCLIDKRQRNRCQYCRYQKCLAMGMKREAVQEERQRGKDRNENEVESTSSANEDMPVERILEAELAVEPKTETYVEANMGLNPSSPNDPVTNICQAADKQLFTLVEWAKRIPHFSELPLDDQVILLRAGWNELLIASFSHRSIAVKDGILLATGLHVHRNSAHSAGVGAIFDRVLTELVSKMRDMQMDKTELGCLRAIVLFNPDSKGLSNPAEVEALREKVYASLEAYCKHKYPEQPGRFAKLLLRLPALRSIGLKCLEHLFFFKLIGDTPIDTFLMEMLEAPHQMT",binding result,[9],no binding
